Measured values: patent publication US4159328A, “Tetrahydro-1,3,5-thiadiazin-4-one derivative” (Nihon Nohyaku Co., Ltd., priority 1977, dated 1979)

How the values were obtained:
Format in all cases: in vivo
[1] = tested on: cirrus red mite (Panonychus citri McGregor); assay: Test Example 4: activity to citrus red mite (Rothamstead method); set-up: concentration or dose not given beside the values; conditions: two days after treatment, 25° C.; 2880 min
Procedure: Activity to cirrus red mite (Panonychus citri McGregor).
Testing method: The test was performed by Rothamstead method. A test composition was sprayed by means of a spray gun over grapefruit leaves infested with citrus red mites. After air-drying the grapefruit was left standing in a constant temperature cabinet at 25° C. Two days after the treatment, the number of survived mites was counted to calculate the mortality.

[2] = tested on: larvae of brown planthopper (Nilaparvata lugens Stahl); assay: Test Example 1: insecticidal activity against larvae of brown planthopper; conditions: 168 h, third-instar larvae, 25° C., 7 days after treatment
Outline: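 Rice seedlings at 1.5-leaf stage were dipped for 30 s in a 400 ppm test composition, air-dried, and infested with third-instar N. lugens larvae. After holding at 25 °C, mortality was scored 5 or 7 days post-treatment from three replicates.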

[3] = tested on: larvae of white-backed planthopper (Sogatella furcifera Horvath); assay: Test Example 2: insecticidal activity against larvae of white-backed planthopper; conditions: 168 h, 400 ppm, first-instar larvae, 25° C., seven days after treatment, read-out: Mortality
Procedure: Insecticidal activity against larvae of white-backed planthopper (Sogatella furcifera Horvath).
Testing method: Five rice seedlings of the 1.5 leaf age were dipped in a test composition of 400 ppm concentration for 30 seconds. After air-drying, the seedlings were placed in a glass tube containing 1 ml of water and infested with five first-instar larvae of white-backed planthopper. The glass tube was left standing in a constant temperature cabinet at 25° C. and seven days after the treatment, dead-and-survival was observed. Mortality was calculated from the results of 3-replication test.

[4] = tested on: two-spotted spider mite (Tetranychus urticae Koch); assay: Test Example 3: activity to two-spotted spider mite; conditions: 48 h, 1,000 ppm, 2 days after treatment
From the text: Activity to two-spotted spider mite (Tetranychus urticae Koch).
Testing method: Two-spotted spider mites were set free on the pot-planted soybean in a greenhouse. On the next day, a test composition of 1,000 ppm concentration was sprayed over the soybean by means of a spray gun. Two days or five days after the treatment, dead-and-survival was inspected to calculate the mortality.

[5] = tested on: larvae of green rice leafhopper (Nephotettix cincticeps Uhler); assay: Test Example 5: activity against larvae of green rice leafhopper; conditions: 168 h, 400 ppm, second-instar larvae, 25° C., seven days after treatment, read-out: Mortality
Outline: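 Rice seedlings at 1.5 leaf age dipped 30 seconds in 400 ppm test composition, air-dried, then infested with five second-instar larvae. Kept at 25° C; mortality scored seven days after treatment, three replicates.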

## CCCN=C1SCN(C(C)(C)C)C(=O)N1C [Compound 32]
[1]
  Mortality: 100%
[2]
  mortality at 400 ppm: 100%
[3]
  mortality at 400 ppm: 100%
[4]
  mortality at 1000 ppm: 100%
[5]
  mortality at 400 ppm: 50%

## C=CCN1CSC(=NC(C)C)N(C)C1=O [Compound 10]
[1]
  Mortality: 80%
[2]
  mortality at 400 ppm: 100%
[3]
  mortality at 400 ppm: 100%
[4]
  mortality at 1000 ppm: 100%
[5]
  mortality at 400 ppm: 100%

## CC(C)N1C(=O)N(C(C)(C)C)CSC1=NC(C)(C)CC(C)(C)C [Compound 48]
[1]
  Mortality: 100%
[2]
  mortality at 400 ppm: 100%
[3]
  mortality at 400 ppm: 100%
[4]
  mortality at 1000 ppm: 100%
[5]
  mortality at 400 ppm: 80%

## CN=C1SCN(C(C)C)C(=O)N1c1ccc(Cl)cc1C [Compound 68]
[1]
  Mortality: 50%
[2]
  mortality at 400 ppm: 100%
[3]
  mortality at 400 ppm: 100%
[4]
  mortality at 1000 ppm: 100%
[5]
  mortality at 400 ppm: 50%

## CCC(C)N=C1SCN(C(C)(C)C)C(=O)N1C (centres unmarked) [Compound 35]
[1]
  Mortality: 100%
[2]
  mortality at 400 ppm: 100%
[3]
  mortality at 400 ppm: 100%
[4]
  mortality at 1000 ppm: 100%
[5]
  mortality at 400 ppm: 50%

## CN=C1SCN(C(C)(C)C)C(=O)N1C [Compound 31, 2-Methylimino-3-methyl-5-t-butyl-tetrahydro-1,3,5-thiadiazin-4-one]
[1]
  Mortality: 100%
[2]
  mortality at 400 ppm: 80%
[3]
  mortality at 400 ppm: 100%
[4]
  mortality at 1000 ppm: 100%
[5]
  mortality at 400 ppm: 50%

## CN=C1SCN(C(C)(C)C)C(=O)N1c1ccccc1 [Compound 69]
[1]
  Mortality: 80%
[2]
  mortality at 400 ppm: 100%
[3]
  mortality at 400 ppm: 100%
[4]
  mortality at 1000 ppm: 100%
[5]
  mortality at 400 ppm: 100%

## CCC(C)N1CSC(=NC(C)C)N(C)C1=O (centres unmarked) [Compound 29]
[1]
  Mortality: 100%
[2]
  mortality at 400 ppm: 100%
[3]
  mortality at 400 ppm: 100%
[4]
  mortality at 1000 ppm: 100%
[5]
  mortality at 400 ppm: 80%

## CCN=C1SCN(C(C)(C)C)C(=O)N1c1ccccc1C [Compound 80, 2-Ethylimino-3-o-tolyl-5-t-butyl-tetrahydro-1,3,5-thiadiazin-4-one]
[1]
  Mortality: 100%
[2]
  mortality at 400 ppm: 100%
[3]
  mortality at 400 ppm: 100%
[4]
  mortality at 1000 ppm: 80%
[5]
  mortality at 400 ppm: 50%

## CC(C)N=C1SCN(C(C)(C)C)C(=O)N1c1ccccc1 [Compound 75]
[1]
  Mortality: 50%
[2]
  mortality at 400 ppm: 100%
[3]
  mortality at 400 ppm: 100%
[4]
  mortality at 1000 ppm: 80%
[5]
  mortality at 400 ppm: 50%

## CCCN=C1SCN(Cc2ccccc2)C(=O)N1CCC [Compound 56]
[1]
  Mortality: 100%
[2]
  mortality at 400 ppm: 80%
[3]
  mortality at 400 ppm: 80%
[4]
  mortality at 1000 ppm: 100%
[5]
  mortality at 400 ppm: 50%

## CC(C)N=C1SCN(C(C)(C)CC(C)(C)C)C(=O)N1C [Compound 59]
[1]
  Mortality: 100%
[2]
  mortality at 400 ppm: 100%
[3]
  mortality at 400 ppm: 100%
[4]
  mortality at 1000 ppm: 100%
[5]
  mortality at 400 ppm: 100%

## CN=C1SCN(C(C)C)C(=O)N1C [Compound 16]
[1]
  Mortality: 100%
[2]
  mortality at 400 ppm: 100%
[3]
  mortality at 400 ppm: 100%
[4]
  mortality at 1000 ppm: 100%
[5]
  mortality at 400 ppm: 100%

## CC(C)N=C1SCN(C(C)(C)C)C(=O)N1C [Compound 33]
[1]
  Mortality: 100%
[2]
  mortality at 400 ppm: 100%
[3]
  mortality at 400 ppm: 100%
[4]
  mortality at 1000 ppm: 100%
[5]
  mortality at 400 ppm: 100%

## COc1ccc(Cl)cc1N1C(=O)N(Cc2ccccc2)CSC1=NC(C)C [Compound 87]
[1]
  Mortality: 100%
[2]
  mortality at 400 ppm: 100%
[3]
  mortality at 400 ppm: 100%
[4]
  mortality at 1000 ppm: 100%
[5]
  mortality at 400 ppm: 80%

## CCCCCCN1CSC(=NC(C)C)N(C(C)C)C1=O [Compound 51]
[1]
  Mortality: 50%
[2]
  mortality at 400 ppm: 100%
[3]
  mortality at 400 ppm: 100%
[4]
  mortality at 1000 ppm: 100%
[5]
  mortality at 400 ppm: 50%
